Source: patent US8828925B2, “Etoposide and doxorubicin conjugates for drug delivery” (Angiochem Inc., priority 2008, dated 2014)
Like-named read-outs stand apart in the source and are kept apart here. Each block holds one molecule with its values, some of them ahead of it.

How the values were obtained:
U87 cells = test: in vitro cell proliferation assay ([3H]-thymidine incorporation), U87; type: cell-based, human
Experimental: (§1) For the in vitro cell proliferation assay, between 2.5 and 5×10^4 of U87 or SK-HEP-1 cells were seeded in a 24 well tissue culture microplate in a final volume of 1 mL of medium with 10% serum and incubated for 24 hours at 37° C. and 5% CO2. The medium was then replaced with serum-free medium and incubated overnight. The next morning the agent was freshly dissolved in dimethyl sulfoxide (DMSO) and the medium was replaced with complete medium containing the agent at different concentrations in triplicate. The final concentration of DMSO was 0.1%. The control used was a microplate well with cells and without agent. The cells were incubated for 48 to 72 hrs at 37° C. and 5% CO2. After the incubation, the medium was changed and replaced with 1 mL of complete medium containing [^3H]-thymidine (1 pCi/assay). The plate was incubated at 37° C. and 5% CO2 for 4 hrs. The medium as removed, and the cells were washed with PBS at 37° C. The cells were fixed with a mix of ethanol:acetic acid (3:1), washed with water, and precipitated 3 times with 10% of ice-cold TCA (trichloroacetic acid). Finally 500 μL of PCA (perchloric acid) were added to the wells and the microplates were heated for 30 min at 65° C. and 30 min at 75° C. The contents of each well were then transferred to a scintillation vial with 10 mL of scintillation cocktail and the activity was measured in CPM (count per minute) on a liquid scintillation counter Tri-Carb from Packard.

[1] = tested on: Lung Carcinoma (NCI-H460); test: in vitro cell proliferation assay, NCI-H460; type: cell-based; conditions: Table 5
mouse brain [2] = test: in situ brain perfusion (brain uptake)
Experimental: (§2) The uptake of [^125I]-polypeptides to the luminal side of mouse brain capillaries was measured using the in situ brain perfusion method adapted in our laboratory for the study of agent uptake in the mouse brain.
(§3) Polypeptides were iodinated with standard procedures using iodo-beads from Sigma. Briefly polypeptides were diluted in 0.1 M phosphate buffer, pH 6.5 (PB). Two iodo-beads were used for each protein. These beads were washed twice with 3 mL of PB on a Whatman filter and re-suspended in 60 of PB. ^125I (1 mCi) from Amersham-Pharmacia biotech was added to the bead suspension for 5 min at room temperature. Each iodination was initiated by the addition of the polypeptide (100 μg). After an incubation of 10 min at room temperature, the free iodine was removed by HPLC.
(§4) Briefly, the right common carotid of ketamine/xylazine (140/8 mg/kg i.p.) anesthetized mice was exposed and ligated at the level of the bifurcation of the common carotid, rostral to the occipital artery. The common carotid was then catheterized rostrally with polyethylene tubing filled with heparin (25 U/mL) and mounted on a 26-gauge needle. The syringe containing the perfusion fluid ([^125I]-polypeptides or [^14C]-inulin in Krebs/bicarbonate buffer at a pH7.4 gassed with 95% O2 and 5% CO2) was placed in an infusion pump (Harvard pump PHD 2000; Harvard Apparatus) and connected to the catheter. Prior to the perfusion, the contralateral blood flow contribution was eliminated by severing heart ventricles. The brain was perfused for the indicated times at a flow rate of 1.15 mL/min. After 14.5 min of perfusion, the brain was further perfused for 60 seconds with Krebs buffer to wash the excess of [^125I]-proteins. Mice were then decapitated to terminate perfusion and the right hemisphere was isolated on ice before being subjected to capillary depletion. Aliquots of homogenates, supernatants, pellets and perfusates were taken to measure their contents in [^125I]-conjugates by TCA precipitation and to evaluate the apparent volume of distribution.

SK-HEP-1 cells [3] = test: in vitro cell proliferation assay ([3H]-thymidine incorporation), SK-HEP-1
Experimental: as §1

[4] = plasma kinetics after bolus administration; type: in vivo, CD-1 mice; conditions: IV bolus, 20 mg/kg, mice
Experimental: FIG. 8 describes the plasma kinetics of Etop-An2(3:1) following administration as a bolus. Radiolabeled (^125I) Etop-An2 (20 mg/kg) was injected in bolus by intravenous (i.v.) or intraperitoneal (i.p.) routes in CD-1 mice weighing about 25-30 g. The injection solution was composed of 12.5% dimethylsulfoxide (DMSO), 12.5% anhydrous ethanol 25% polyethylene glycol 400 (PEG400) and 50% NaCl/Glycine buffer. At several time intervals (0.5, 1, 2, and 6 hours) the blood was collected by cardiac puncture and animals were sacrificed. After blood centrifugation, the plasma radioactivity was measured in a gamma counter (Wizard 1470 Automatic Gamma Counter). The radioactivity was interpreted as % of injected dose per gram of plasma. Results were plotted using GraphPad prism software and the area under the curve (AUC) for each injection mode was calculated. The bioavailability of intraperitoneal Etop-An2 conjugate was then estimated by dividing the AUC after i.p. injection by the AUC after i.v. injection.

[5] = tissue distribution after IV bolus; type: in vivo; conditions: thirty minutes after IV bolus, mice, FIG. 12
Experimental: The effect of conjugation of an agent to a vector on distribution of the agent or the pharmacokinetics of a polypeptide that is conjugated to an agent was evaluated by administering a labeled polypeptide or conjugate to an animal and measuring distribution of the polypeptide or conjugate to organs (e.g., using ^3H or ^125I labeled conjugates) to mice. Similar experiments can be performed with compounds that include any of polypeptides described herein (e.g., the polypeptides described in Table 1 such as AngioPep-3, AngioPep-4a, AngioPep-4b, AngioPep-5, AngioPep-6, and AngioPep-7, or analogs thereof). Here, the unconjugated anticancer agent and the conjugates were injected intravenously to mice as a bolus. Tissues were collected at different times (0.25, 0.5, 1, and 4 hrs) and homogenized. To quantify the amount of ^3H-labeled conjugate, tissue homogenates were digested with tissue solubilizer, and 10 mL of liquid scintillator was added to samples. The amount of the ^125I labeled conjugate, in the different tissues is measured after TCA precipitation. Radioactivity associated with the tissues is quantified. The area under the curve (AUC 0-4) is estimated using the Prism software and is plotted for the different tissues.
FIG. 11 compares the brain distribution of Etop-An2(3:1) versus unconjugated etoposide thirty minutes after IV bolus administration to mice.

SK-HEP-1 cells [6] = tested on: SK-HEP-1 cells
Experimental: as §1

mouse brain [7] = conditions: in vivo
Experimental: as §2, §3, §4

P-gp = P-gp (Mus musculus, UniProt P21447)
Experimental: as §2
Briefly, the right common carotid of ketamine/xylazine (140/8 mg/kg i.p.) anesthetized mice was exposed and ligated at the level of the bifurcation of the common carotid, rostral to the occipital artery. The common carotid was then catheterized rostrally with polyethylene tubing filled with heparin (25 U/mL) and mounted on a 26-gauge needle. The syringe containing the perfusion fluid ([^125I]-polypeptides or [^14C]-inulin in Krebs/bicarbonate buffer at a pH7.4 gassed with 95% O2 and 5% CO2) was placed in an infusion pump (Harvard pump PHD 2000; Harvard Apparatus) and connected to the catheter. Prior to the perfusion, the contralateral blood flow contribution was eliminated by severing heart ventricles. The brain was perfused for the indicated times at a flow rate of 1.15 mL/min. After 14.5 min of perfusion, the brain was further perfused for 60 seconds with Krebs buffer to wash the excess of [^125I]-proteins. Mice were then decapitated to terminate perfusion and the right hemisphere was isolated on ice before being subjected to capillary depletion. […]

[8] = tested on: U87 cells in nude mice brain; test: intracerebral human brain tumor model (U87), survival; type: in vivo; conditions: doxorubicin 6 mg/kg, (DoxSu)3-An2 40 mg/kg i.v. 1× per week
Experimental: The intracerebral human brain tumor model was established by stereotactic inoculation of 5×10^5 U87 cells in nude mice brain. Female athymic nude mice (Crl:Nu/Nu-nuBR; 20-25 g, 4-6 weeks old; Charles River Canada, St-Constant, QC) were used for tumor models and were maintained in a pathogen-free environment. One hour before surgery, mice received a subcutaneous injection of buprenorphine (0.1 mg kg^−1). For tumor cell inoculation, mice were anesthetized by i.p. injection of ketamine/xylazine (120/10 mg kg^−1) and placed in a stereotactic apparatus (Kopf; Tujunga, Calif.). A burr hole was drilled 1.5 mm anterior and 2.5 mm lateral to the bregma. The cell suspension in 5 μL of serum free cell culture medium was injected over a 5 minute period using a Hamilton syringe at a depth of 3.5 mm.
Drug treatment started 3 days post-inoculation (Table 8). […] Drug solutions were prepared in dextrose 5% water (D5W). Injection solutions were freshly prepared before each administration. Clinical signs of disease progression and body weights were monitored everyday. When mice reached terminal endpoints (20% of decrease in body weight), they were sacrificed by carbon dioxide asphyxiation.

[9] = literature data (Reddy et al. 2005); cited from earlier work
[10] = Homo sapiens, U-87 MG, Table 5, incubation 48 to 72 hrs, read-out: IC50 (nM) Glioblastoma (U87)
[11] = Homo sapiens, SK-HEP1, read-out: IC50 (nM) Hepatocarcinoma (SK-Hep-1)

Chain of P-gp (P21447 whole entry): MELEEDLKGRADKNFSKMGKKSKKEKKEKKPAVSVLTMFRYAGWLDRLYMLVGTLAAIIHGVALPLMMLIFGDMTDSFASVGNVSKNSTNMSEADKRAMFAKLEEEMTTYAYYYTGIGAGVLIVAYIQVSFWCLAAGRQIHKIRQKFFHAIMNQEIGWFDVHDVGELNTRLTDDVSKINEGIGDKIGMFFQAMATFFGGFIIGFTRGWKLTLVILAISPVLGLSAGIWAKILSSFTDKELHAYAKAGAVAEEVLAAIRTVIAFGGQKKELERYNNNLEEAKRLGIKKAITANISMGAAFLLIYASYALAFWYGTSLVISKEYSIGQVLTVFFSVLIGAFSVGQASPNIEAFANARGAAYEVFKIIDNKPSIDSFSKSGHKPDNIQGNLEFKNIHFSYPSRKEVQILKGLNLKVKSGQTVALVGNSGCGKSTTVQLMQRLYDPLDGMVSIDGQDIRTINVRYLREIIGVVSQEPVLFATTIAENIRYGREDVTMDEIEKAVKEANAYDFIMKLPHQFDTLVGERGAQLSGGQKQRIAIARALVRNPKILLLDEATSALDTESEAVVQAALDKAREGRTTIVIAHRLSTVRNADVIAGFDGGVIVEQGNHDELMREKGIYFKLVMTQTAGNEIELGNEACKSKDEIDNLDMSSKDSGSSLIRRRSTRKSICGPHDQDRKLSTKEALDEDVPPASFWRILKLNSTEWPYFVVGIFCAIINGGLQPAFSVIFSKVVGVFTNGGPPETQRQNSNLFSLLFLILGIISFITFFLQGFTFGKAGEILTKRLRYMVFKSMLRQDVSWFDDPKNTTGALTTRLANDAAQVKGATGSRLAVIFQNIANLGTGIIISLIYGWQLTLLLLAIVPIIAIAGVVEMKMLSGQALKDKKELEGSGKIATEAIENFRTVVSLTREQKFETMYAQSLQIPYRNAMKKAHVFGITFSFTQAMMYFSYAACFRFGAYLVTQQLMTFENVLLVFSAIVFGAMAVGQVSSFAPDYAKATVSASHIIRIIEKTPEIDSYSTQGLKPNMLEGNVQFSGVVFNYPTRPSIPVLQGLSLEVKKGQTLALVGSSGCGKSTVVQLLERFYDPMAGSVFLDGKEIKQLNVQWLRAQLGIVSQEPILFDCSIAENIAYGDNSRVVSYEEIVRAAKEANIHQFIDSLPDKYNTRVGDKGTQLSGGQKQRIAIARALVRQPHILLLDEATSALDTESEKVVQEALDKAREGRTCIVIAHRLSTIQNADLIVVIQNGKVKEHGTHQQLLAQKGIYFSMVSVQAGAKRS

- IC50 (U87 cells; [10]): 145 nM
- IC50 ([1]; Homo sapiens, NCI-H460): 90 nM
- Brain Kin (mouse brain [2]): 9e-05 mL/s/g
- IC50 (SK-HEP-1 cells [3]; [11]): 62 nM
Molecule: COc1cc(C2c3cc4c(cc3[C@@H](O[C@@H]3O[C@@H]5CO[C@@H](C)O[C@H]5[C@H](O)[C@H]3O)[C@H]3COC(=O)[C@H]23)OCO4)cc(OC)c1OC(=O)CN(C)C (stereo partly drawn) [EtopDMG, Etoposide 4′-Dimethylglycine]

Molecule: COc1cc([C@@H]2c3cc4c(cc3[C@@H](O[C@@H]3O[C@@H]5CO[C@@H](C)O[C@H]5[C@H](O)[C@H]3OC(=O)CCCC(=O)NCCCC[C@H](NC(=O)CNC(=O)[C@H](CCCNC(=N)N)NC(=O)[C@H](CO)NC(=O)CNC(=O)CNC(=O)[C@H](Cc3ccc(O)cc3)NC(=O)[C@H](Cc3ccccc3)NC(=O)[C@H](Cc3ccccc3)NC(=O)[C@@H](NC(=O)CCCC(=O)O[C@H]3[C@H](O[C@@H]5c6cc7c(cc6[C@@H](c6cc(OC)c(O)c(OC)c6)[C@H]6C(=O)OC[C@@H]65)OCO7)O[C@@H]5CO[C@@H](C)O[C@H]5[C@@H]3O)[C@@H](C)O)C(=O)N[C@@H](CCCNC(=N)N)C(=O)N[C@@H](CC(N)=O)C(=O)N[C@@H](CC(N)=O)C(=O)N[C@@H](Cc3ccccc3)C(=O)N[C@@H](CCCCNC(=O)CCCC(=O)O[C@H]3[C@H](O[C@@H]5c6cc7c(cc6[C@@H](c6cc(OC)c(O)c(OC)c6)[C@H]6C(=O)OC[C@@H]65)OCO7)O[C@@H]5CO[C@@H](C)O[C@H]5[C@@H]3O)C(=O)N[C@H](C(=O)N[C@@H](CCC(=O)O)C(=O)N[C@@H](CCC(=O)O)C(=O)N[C@@H](Cc3ccc(O)cc3)C(=O)O)[C@@H](C)O)[C@H]3COC(=O)[C@H]23)OCO4)cc(OC)c1O [Etop-An2(3:1), ((2″-Glutaryl)-Etop)3-(Angiopep2)]
- IC50 (U87 cells; U-87 Cells, 24 hours, read-out: IC50 (nM) 24 hours): 453 nM
- IC50 (U87 cells; U-87 Cells, 48 hours, read-out: IC50 (nM) 48 hours): 151 nM
- IC50 (U87 cells; U-87 Cells, 72 hours, read-out: IC50 (nM) 72 hours): 164 nM
- AUC0-∞ (hr°μg/mL) [4]: 82 hr°μg/mL
- Elim. Rate Const. [4]: 1.6 h⁻¹
- T1/2α [4]: 25.8 min
- concentration in the tissues studied versus unconjugated etoposide [5]: increased concentration in the tissues studied
- IC50 (SK-HEP-1 cells [6]): 59 nM
- Vd (slope) relative to the corresponding unconjugated drug (mouse brain [7]): higher
- P-gp substrate status (P-gp): not a P-gp substrate
- IC50 (SK-HEP-1 cells [3]; read-out: IC50 (nM) 24 hours, SK-HEP-1, 24 hours): 160 nM
- IC50 (SK-HEP-1 cells [3]; read-out: IC50 (nM) 72 hours, SK-HEP-1, 72 hours): 52 nM

Molecule: COc1cccc2c1C(=O)c1c(O)c3c(c(O)c1C2=O)C[C@@](O)(C(=O)CO)C[C@@H]3O[C@H]1C[C@H](N)[C@H](O)[C@H](C)O1 [Doxorubicin, doxorubicin]
- IC50 (U87 cells; [10]): 18 nM
- IC50 ([1]; Homo sapiens, NCI-H460): 11 nM
- Survival (days) Mean Trial 1 ([8]; Trial 1): 20.6 days
- Survival (days) Median Trial 1 ([8]; Trial 1, treatment from 3 days post-inoculation): 21 days
- Survival (days) Median Trial 2 ([8]; Trial 2): 23 days
- Brain Kin (mouse brain [7]; pH 7.4): 0.00028 mL/s/g
- IC50 (SK-HEP-1 cells [3]; [11]): 10 nM

- IC50 (U87 cells; Homo sapiens, U-87 MG, U-87 Cells, 24 hours, read-out: IC50 (nM) 24 hours): 160 nM
- IC50 (U87 cells; Homo sapiens, U-87 MG, U-87 Cells, 48 hours, read-out: IC50 (nM) 48 hours): 221 nM
- IC50 (U87 cells; Homo sapiens, U-87 MG, U-87 Cells, 72 hours, read-out: IC50 (nM) 72 hours): 145 nM
- IC50 (SK-HEP-1 cells [6]): 56 nM
- IC50 (SK-HEP-1 cells [3]; Homo sapiens, SK-HEP1, 24 h, read-out: IC50 (nM) 24 hours): 116 nM
- IC50 (SK-HEP-1 cells [3]; Homo sapiens, SK-HEP1, 72 h, read-out: IC50 (nM) 72 hours): 50 nM
Molecule: COc1cc([C@@H]2c3cc4c(cc3[C@@H](O[C@@H]3O[C@@H]5CO[C@@H](C)O[C@H]5[C@H](O)[C@H]3O)[C@H]3COC(=O)[C@H]23)OCO4)cc(OC)c1O [Etoposide]
- T1/2α [9]: 7.8 min

Molecule: (Etoposide-4′-Dimethylglycine-2″-Glutaric)3-Angiopep-2 Conjugate [EtopDMG-An2(3:1)]
- IC50 (U87 cells; Table 5, incubation 48 to 72 hrs, read-out: IC50 (nM) Glioblastoma (U87)): 330 nM
- IC50 [1]: 148 nM
- IC50 (SK-HEP-1 cells [3]; read-out: IC50 (nM) Hepatocarcinoma (SK-Hep-1), Table 5, incubation 48 to 72 hrs): 48 nM
